Source: patent publication US20240180845A1, “THIN-SHELL POLYMERIC NANOPARTICLES AND USES THEREOF” (Academia Sinica, priority 2016, published 2024)

Experiments:
[1] = Encapsulation efficiency and loading of cargoes in thin-shell hollow PLGA nanoparticles; format: physicochemical
[2] = parameters: species or system mice; conditions: mouse, in vivo
Protocol: FIG. […], is a depiction of STING agonist-loaded nanoparticles on enhancing lymphatic cytokines while minimizing systemic cytokines. • A: Induction of TNF-α in a mouse dendritic cell line following incubation with cd-GMP nanoparticles and free cd-GMP. • B: Induction of IL-6 in the same mouse dendritic cell line. • C: Induction of IFN-β in the mouse dendritic cell line. • D: Activation of JAWSII upon incubation with equivalent doses of cd-GMP in free molecule form and in nanoparticle formulation. • E: Quantification of lymph node IFN-β 48 hours following footpad injection of free cd-GMP or nanoparticle cd-GMP. • F: Level of systemic TNF-α following footpad injection of free cd-GMP and nanoparticle cd-GMP. Immune potentiation by the cd-GMP nanoparticles was further compared to free cd-GMP in vivo in mice. 48 hours following footpad injections, the draining popliteal lymph nodes were collected for IFN-β quantification. […] In addition, the systemic level of TNF-α, an indicator of reactogenicity, was also monitored following the footpad administration of free cd-GMP and cd-GMP nanoparticles.

Nc1nc2c(ncn2[C@@H]2O[C@@H]3COP(=O)(O)O[C@H]4[C@@H](O)[C@H](n5cnc6c(=O)[nH]c(N)nc65)O[C@@H]4COP(=O)(O)O[C@H]3[C@H]2O)c(=O)[nH]1 [cyclic di-GMP]
encapsulation efficiency ([1]; cargo in thin-shell hollow PLGA nanoparticles, listed as cd-GMP): about 40% | STING agonist molecules per nanoparticle ([1]; hollow particles 100 to 200 nm in diameter): approximately 2,000 | serum level of TNF-α, indicator of reactogenicity [2]: elevated level
